In patent US11597708B2, “Inhibitors of heat shock factors and uses thereof” (HSF Pharmaceuticals SA, priority 2016, dated 2023):
Like-named read-outs stand apart in the source and are kept apart here.

Molecular target: T1, HSF1 (Homo sapiens, UniProt Q00613)
T1 construct: functionally linked to an hsp70b promoter and therefore controlled by endogenous HSF1; endogenous in cells; host or cells: HeLa cells / HeLa-derived cell line Z74
T1 sequence (Q00613 1-529): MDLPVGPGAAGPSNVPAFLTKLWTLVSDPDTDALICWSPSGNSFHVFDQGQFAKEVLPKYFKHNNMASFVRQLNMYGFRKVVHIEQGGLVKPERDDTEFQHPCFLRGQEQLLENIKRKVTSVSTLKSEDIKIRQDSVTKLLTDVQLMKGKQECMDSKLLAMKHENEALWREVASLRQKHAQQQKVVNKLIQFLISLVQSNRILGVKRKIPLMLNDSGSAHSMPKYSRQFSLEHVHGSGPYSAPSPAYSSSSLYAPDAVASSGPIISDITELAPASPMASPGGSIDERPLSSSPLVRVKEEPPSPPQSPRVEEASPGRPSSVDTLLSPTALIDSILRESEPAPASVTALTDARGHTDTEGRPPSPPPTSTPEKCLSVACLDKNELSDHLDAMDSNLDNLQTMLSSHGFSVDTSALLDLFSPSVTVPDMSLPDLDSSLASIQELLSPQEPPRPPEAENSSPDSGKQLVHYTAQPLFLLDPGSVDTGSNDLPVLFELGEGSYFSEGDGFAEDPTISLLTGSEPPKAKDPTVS
Assay: Z74 cell-based reporter assay: heat-induced RLuc expression controlled by endogenous HSF1
Conditions: for IC50: inhibition of HSF1 activity [RLuc]; for inhibition at 12.5 µM: 12.5 μM IHSF, negative values marked *: compound enhanced rLuc activity, read-out: Inhibition of HSF1 activity at 12.5 μM IHSF [RLuc] (%)
In short: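 HeLa-derived Z74 cells carry LexA-HSF1-driven firefly luciferase and hsp70b promoter-driven Renilla luciferase, the latter under endogenous HSF1. Cells were treated with compound at 12.5 or 25 μM for 2 h, heated to 43.0 °C for 30 min, then kept 6 h at 37 °C. Both luciferases were read by dual-luciferase luminescence.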

[1] = Z74 cells, 25 μM IHSF, 2 h exposure, 43° C. 30 min, 6 h at 37° C., read-out: Inhibition of HSF1 activity at 25 μM IHSF [RLuc] (%)

`CCOC(=O)/C=C/C(=O)Nc1ncc(-c2cccnc2)s1` [IHSF 058, (E)-3-(5-Pyridm-3-yl-thiazol-2-ylcarbamoyl)-acrylic acid ethyl ester] showed an IC50 (Z74 cells) of 4.8 µM, an inhibition at 12.5 µM (Z74 cells) of 79% and an inhibition at 25 µM [1] of 97%.

With `CCOC(=O)/C=C/C(=O)Nc1nccs1` [IHSF 001, (E)-ethyl 4-oxo-4-(thiazol-2-ylamino)but-2-enoate] the inhibition at 25 µM (IHSF 001 tested at 25 μM, Experiment No. 1, read-out: Inhibition of HSF1 activity [RLuc] (%)) was 66%, the inhibition at 25 µM (IHSF 001 tested at 25 μM, Experiment No. 2, read-out: Inhibition of HSF1 activity [RLuc] (%)) was 69% and the inhibition at 25 µM (IHSF 001 tested at 25 μM, Experiment No. 3, read-out: Inhibition of HSF1 activity [RLuc] (%)) was 69%. The inhibition at 25 µM (IHSF 001 tested at 25 μM, Experiment No. 4, read-out: Inhibition of HSF1 activity [RLuc] (%)) was 67%, the inhibition at 25 µM (IHSF 001 tested at 25 μM, Experiment No. 5, read-out: Inhibition of HSF1 activity [RLuc] (%)) was 68% and the inhibition at 25 µM (IHSF 001 tested at 25 μM, Experiment No. 6, read-out: Inhibition of HSF1 activity [RLuc] (%)) was 63%. For the same compound, the inhibition at 25 µM (IHSF 001 tested at 25 μM, Experiment No. 7, read-out: Inhibition of HSF1 activity [RLuc] (%)) was 56%, the inhibition at 25 µM (IHSF 001 tested at 25 μM, Experiment No. 8, read-out: Inhibition of HSF1 activity [RLuc] (%)) was 51% and the inhibition at 25 µM (IHSF 001 tested at 25 μM, Experiment No. 9, read-out: Inhibition of HSF1 activity [RLuc] (%)) was 45%. The IC50 (Z74 cells) was 17.8 µM, the inhibition at 12.5 µM (Z74 cells) was 37% and the inhibition at 25 µM [1] was 64%.

`CN(C(=O)/C=C/C1=NCCCO1)c1ncc(-c2cccnc2)s1` [IHSF 115, (E)-3-(5,6-Dihydro-4H-[1,3]oxazin-2-yl)-N-methyl-N-(5-pyridin-3-yl-thiazol-2-yl)-acrylamide] gave an IC50 (Z74 cells) of 0.7 µM, an inhibition at 12.5 µM (Z74 cells) of 99% and an inhibition at 25 µM [1] of 100%. The “activity in the Z74-based screening assay” value (most potent IHSF) was “substantial activity in the high nanomolar range”.
